Test results reported in patent US20050112573A1, “Method of detecting toxic substance” (priority 2001, published 2005).

Tested on: yeast genes (level of expressed mRNA)
Assay: DNA chip analysis of expressed mRNA of yeast genes after 2 h culture with a toxic chemical substance
Assay type: cell-based, Saccharomyces cerevisiae S288C
Experimental: Yeast (Saccharomyces cerevtisiae S288C (α SUC2mal mel gap2 CUP1)) were cultured at 25° C. on YPD medium (yeast extract 1%, polypepton 2%, glucose 2%). One of toxic chemical substances was added to the cell at logarithmic growth phase, and the cell was further cultured for two hours. Cell was cultured without any chemical substance in the same condition, and was used as control. Concentrations of the chemical substances were defined to inhibit the growth of the yeast but not lead to death.
After the completion of cultivation, the culture was centrifuged to collect the cells. To the cells, sodium acetate buffer (50 mM sodium acetate, 10 mM EDTA, 1% SDS) was added, and the mixture was shaken at 65° C. for five minutes, followed by returning to room temperature, and obtaining the supernatant, which procedure was repeated two times. To the supernatant, ½ amount of a solution of phenol/chloroform was added, and the mixture was centrifuged to give a supernatant, which was added with an equal amount of chloroform, and the mixture was centrifuged to give a supernatant. To the supernatant, an equal amount of isopropanol containing 0.3 M sodium acetate was added, and the mixture was allowed to stand at room temperature for 30 minutes, after which the mixture was centrifuged to give a sediment of the whole RNAs. Seventy % ethanol was added to the sediment, and the mixture was again centrifuged to give a sediment, which was then dried and dissolved in water. mRNA was isolated from the whole RNAs as followings. In view of the fact that a poly A chain is attached to the 3′ terminus of mRNA, a polynucleotide having a poly T structure which was immobilized on the surface of latex beads was used to trap the mRNA, and then the mRNA was washed and eluted with spine column (Oligotex-dT30<Super>mRNA Purification Kit, Takara). Reverse transcription of the mRNA was conducted with a reverse transcriptase (Super Script II Reverse Transcriptase; catalogue No. 18064-014, GibcoBRL) using fluorescence-labeled nucleotides to give cDNAs that were introduced with Cy3-dUTP or Cy5-dUTP during the reverse transcription.
The labeled cDNAs were dissolved in TE buffer (10 mM Tris-HCl/1 mM EDTA, pH8.0), and the solution was dropped on the DNA chip containing the whole genes of yeast (DNA Chip Research Inc. Japan) so that the cDNAs were hybridized on the DNA chip at 65° C. for over 12 hours. The fluoresces intensity of the DNA chip was read with a scanner, and the ratio relative to the fluorescence intensity resulting from the absence of chemical substance was estimated as the following, which is shown in Tables 1 to 9: [formula]
In the Tables, “Intensity” indicated in the rightmost column is a value of the level of expressed mRNA of each gene in control cells as divided by the average level of the expressions of the whole genes.

CCCCCCCCCCCCOS(=O)(=O)[O-].[Na+] [(18), sodium lauryl sulfate]
1.2: The level of expressed mRNA in the presence of chemical substance/absence: YAL017W (gene YAL017W) | The level of expressed mRNA in the presence of chemical substance/absence: YBR012C (gene YBR012C) | The level of expressed mRNA in the presence of chemical substance/absence: YBR063C (gene YBR063C) | The level of expressed mRNA in the presence of chemical substance/absence: YBR066C (gene YBR066C) | The level of expressed mRNA in the presence of chemical substance/absence: YDR078C (gene YDR078C) | The level of expressed mRNA in the presence of chemical substance/absence: YDR281C (gene YDR281C) | The level of expressed mRNA in the presence of chemical substance/absence: YDR425W (gene YDR425W) | The level of expressed mRNA in the presence of chemical substance/absence: YDR504C (gene YDR504C) | The level of expressed mRNA in the presence of chemical substance/absence: YER182W (gene YER182W) | The level of expressed mRNA in the presence of chemical substance/absence: YFL042C (gene YFL042C) | level of expressed mRNA in the presence of chemical substance/in its absence (gene YFR015C) | The level of expressed mRNA in the presence of chemical substance/absence: YGL045W (gene YGL045W)
0.7: level of expressed mRNA in the presence of chemical substance/in its absence (gene YGL022W) | The level of expressed mRNA in the presence of chemical substance/absence: YGL088W (gene YGL088W) | The level of expressed mRNA in the presence of chemical substance/absence: YGR210C (gene YGR210C)
1.9: level of expressed mRNA in the presence of chemical substance/in its absence (gene YBR035C) | The level of expressed mRNA in the presence of chemical substance/absence: YBR287W (gene YBR287W) | level of expressed mRNA in the presence of chemical substance/in its absence (gene YDR487C)
2.4: level of expressed mRNA in the presence of chemical substance/in its absence (gene YBR111C) | level of expressed mRNA in the presence of chemical substance/in its absence (gene YBR183W)
1.6: level of expressed mRNA in the presence of chemical substance/in its absence (gene YAR071W) | level of expressed mRNA in the presence of chemical substance/in its absence (gene YBR014C) | level of expressed mRNA in the presence of chemical substance/in its absence (gene YCR098C) | The level of expressed mRNA in the presence of chemical substance/absence: YDL046W (gene YDL046W) | level of expressed mRNA in the presence of chemical substance/in its absence (gene YDR019C) | The level of expressed mRNA in the presence of chemical substance/absence: YDR071C (gene YDR071C) | level of expressed mRNA in the presence of chemical substance/in its absence (gene YGR060W)
1.3: level of expressed mRNA in the presence of chemical substance/in its absence (gene YBR068C) | The level of expressed mRNA in the presence of chemical substance/absence: YBR162C (gene YBR162C) | The level of expressed mRNA in the presence of chemical substance/absence: YDR140W (gene YDR140W) | level of expressed mRNA in the presence of chemical substance/in its absence (gene YEL020C) | level of expressed mRNA in the presence of chemical substance/in its absence (gene YGL104C) | level of expressed mRNA in the presence of chemical substance/in its absence (gene YGL134W)
0.6: The level of expressed mRNA in the presence of chemical substance/absence: YCL044C (gene YCL044C)
0.8: level of expressed mRNA in the presence of chemical substance/in its absence (gene YAL012W) | The level of expressed mRNA in the presence of chemical substance/absence: YBL044W (gene YBL044W) | The level of expressed mRNA in the presence of chemical substance/absence: YBL100C (gene YBL100C) | level of expressed mRNA in the presence of chemical substance/in its absence (gene YBR029C) | The level of expressed mRNA in the presence of chemical substance/absence: YBR051W (gene YBR051W) | The level of expressed mRNA in the presence of chemical substance/absence: YBR281C (gene YBR281C) | level of expressed mRNA in the presence of chemical substance/in its absence (gene YCL009C) | level of expressed mRNA in the presence of chemical substance/in its absence (gene YCR048W) | The level of expressed mRNA in the presence of chemical substance/absence: YDR278C (gene YDR278C) | level of expressed mRNA in the presence of chemical substance/in its absence (gene YDR380W) | The level of expressed mRNA in the presence of chemical substance/absence: YDR421W (gene YDR421W) | The level of expressed mRNA in the presence of chemical substance/absence: YFR056C (gene YFR056C) | level of expressed mRNA in the presence of chemical substance/in its absence (gene YGL253W) | The level of expressed mRNA in the presence of chemical substance/absence: YGR139W (gene YGR139W) | The level of expressed mRNA in the presence of chemical substance/absence: YGR156W (gene YGR156W)
3.2: level of expressed mRNA in the presence of chemical substance/in its absence (gene YER026C)
1.0: level of expressed mRNA in the presence of chemical substance/in its absence (gene YAL038W) | The level of expressed mRNA in the presence of chemical substance/absence: YAR047C (gene YAR047C) | The level of expressed mRNA in the presence of chemical substance/absence: YBR255W (gene YBR255W) | level of expressed mRNA in the presence of chemical substance/in its absence (gene YDR009W) | The level of expressed mRNA in the presence of chemical substance/absence: YDR221W (gene YDR221W) | The level of expressed mRNA in the presence of chemical substance/absence: YDR338C (gene YDR338C) | level of expressed mRNA in the presence of chemical substance/in its absence (gene YDR410C) | The level of expressed mRNA in the presence of chemical substance/absence: YDR485C (gene YDR485C) | The level of expressed mRNA in the presence of chemical substance/absence: YEL044W (gene YEL044W) | level of expressed mRNA in the presence of chemical substance/in its absence (gene YGL039W) | The level of expressed mRNA in the presence of chemical substance/absence: YGL183C (gene YGL183C) | The level of expressed mRNA in the presence of chemical substance/absence: YGL223C (gene YGL223C) | The level of expressed mRNA in the presence of chemical substance/absence: YGR198W (gene YGR198W) | The level of expressed mRNA in the presence of chemical substance/absence: YGR237C (gene YGR237C) | The level of expressed mRNA in the presence of chemical substance/absence: YGR266W (gene YGR266W)
2.1: The level of expressed mRNA in the presence of chemical substance/absence: YCR007C (gene YCR007C) | level of expressed mRNA in the presence of chemical substance/in its absence (gene YGL001C) | The level of expressed mRNA in the presence of chemical substance/absence: YGR250C (gene YGR250C)
0.5: The level of expressed mRNA in the presence of chemical substance/absence: YDR316W (gene YDR316W) | The level of expressed mRNA in the presence of chemical substance/absence: YGR211W (gene YGR211W)
1.1: The level of expressed mRNA in the presence of chemical substance/absence: YAL014C (gene YAL014C) | The level of expressed mRNA in the presence of chemical substance/absence: YBR013C (gene YBR013C) | level of expressed mRNA in the presence of chemical substance/in its absence (gene YBR299W) | The level of expressed mRNA in the presence of chemical substance/absence: YDL089W (gene YDL089W) | The level of expressed mRNA in the presence of chemical substance/absence: YDR090C (gene YDR090C) | The level of expressed mRNA in the presence of chemical substance/absence: YFR026C (gene YFR026C) | The level of expressed mRNA in the presence of chemical substance/absence: YGL041C (gene YGL041C) | The level of expressed mRNA in the presence of chemical substance/absence: YGL057C (gene YGL057C) | level of expressed mRNA in the presence of chemical substance/in its absence (gene YGL154C) | The level of expressed mRNA in the presence of chemical substance/absence: YGR038W (gene YGR038W) | The level of expressed mRNA in the presence of chemical substance/absence: YGR277C (gene YGR277C)
2.0: level of expressed mRNA in the presence of chemical substance/in its absence (gene YBR145W)
1.8: level of expressed mRNA in the presence of chemical substance/in its absence (gene YAL044C) | The level of expressed mRNA in the presence of chemical substance/absence: YAL049C (gene YAL049C) | level of expressed mRNA in the presence of chemical substance/in its absence (gene YBL001C) | level of expressed mRNA in the presence of chemical substance/in its absence (gene YBR050C) | The level of expressed mRNA in the presence of chemical substance/absence: YDL173W (gene YDL173W)
1.4: level of expressed mRNA in the presence of chemical substance/in its absence (gene YAL054C) | level of expressed mRNA in the presence of chemical substance/in its absence (gene YDL022W) | The level of expressed mRNA in the presence of chemical substance/absence: YDL193W (gene YDL193W) | The level of expressed mRNA in the presence of chemical substance/absence: YDL233W (gene YDL233W)
4.4: The level of expressed mRNA in the presence of chemical substance/absence: YGR243W (gene YGR243W)
1.5: The level of expressed mRNA in the presence of chemical substance/absence: YBR129C (gene YBR129C) | The level of expressed mRNA in the presence of chemical substance/absence: YCL056C (gene YCL056C) | level of expressed mRNA in the presence of chemical substance/in its absence (gene YGL209W) | level of expressed mRNA in the presence of chemical substance/in its absence (gene YGR282C)
0.9: The level of expressed mRNA in the presence of chemical substance/absence: YAL018C (gene YAL018C) | The level of expressed mRNA in the presence of chemical substance/absence: YAR064W (gene YAR064W) | level of expressed mRNA in the presence of chemical substance/in its absence (gene YBR023C) | The level of expressed mRNA in the presence of chemical substance/absence: YBR124W (gene YBR124W) | level of expressed mRNA in the presence of chemical substance/in its absence (gene YBR222C) | level of expressed mRNA in the presence of chemical substance/in its absence (gene YCR037C) | The level of expressed mRNA in the presence of chemical substance/absence: YDR109C (gene YDR109C) | The level of expressed mRNA in the presence of chemical substance/absence: YDR128W (gene YDR128W) | The level of expressed mRNA in the presence of chemical substance/absence: YDR133C (gene YDR133C) | The level of expressed mRNA in the presence of chemical substance/absence: YDR250C (gene YDR250C) | The level of expressed mRNA in the presence of chemical substance/absence: YDR271C (gene YDR271C) | The level of expressed mRNA in the presence of chemical substance/absence: YDR366C (gene YDR366C) | level of expressed mRNA in the presence of chemical substance/in its absence (gene YDR502C) | level of expressed mRNA in the presence of chemical substance/in its absence (gene YER069W) | level of expressed mRNA in the presence of chemical substance/in its absence (gene YGL126W)
2.5: level of expressed mRNA in the presence of chemical substance/in its absence (gene YEL011W)
1.7: The level of expressed mRNA in the presence of chemical substance/absence: YER092W (gene YER092W)
0.3: level of expressed mRNA in the presence of chemical substance/in its absence (gene YCL064C)
